In ChEMBL document CHEMBL4028910, “Discovery of Small-Molecule Inhibitors of Ubiquitin Specific Protease 7 (USP7) Using Integrated NMR and in Silico Techniques” (J Med Chem, 2017) one finds IC50, EC50 and Kd data, which are given here for 26 compounds.

Assay [1] has as its target T1, Ubiquitin carboxyl-terminal hydrolase 7 (Homo sapiens, UniProt Q93009). The assay can be described thus: Inhibition of native full length C-terminal USP7 (unknown origin) using ubiquitin-Rho110 as substrate incubated for 1 hr by fluorescence assay.
The target of assay [2] is T1, Ubiquitin carboxyl-terminal hydrolase 7. The assay can be described thus: Inhibition of USP7 in human SJSA cells assessed as increase in ubiquitinated MDM2 level after 16 hrs in presence of MG132 by MSD assay. It is filed as cell-based.
For assay [3] the target is unchanged. The assay can be described thus: Binding affinity to human His-tagged and [15N-13C-2H], delta1[13CH3]-Ile, [13CH3]-Leu/Val and [13CH3]-Met-labeled USP7-catalytic domain (208 to 554 residues) expressed in Escherichia coli Rosetta 2 (DE3) cells by 2D[1H-15N]-based TROSY spectrum NMR analysis.

Bounds are passed on as bounds.

T1 sequence (Q93009 whole entry): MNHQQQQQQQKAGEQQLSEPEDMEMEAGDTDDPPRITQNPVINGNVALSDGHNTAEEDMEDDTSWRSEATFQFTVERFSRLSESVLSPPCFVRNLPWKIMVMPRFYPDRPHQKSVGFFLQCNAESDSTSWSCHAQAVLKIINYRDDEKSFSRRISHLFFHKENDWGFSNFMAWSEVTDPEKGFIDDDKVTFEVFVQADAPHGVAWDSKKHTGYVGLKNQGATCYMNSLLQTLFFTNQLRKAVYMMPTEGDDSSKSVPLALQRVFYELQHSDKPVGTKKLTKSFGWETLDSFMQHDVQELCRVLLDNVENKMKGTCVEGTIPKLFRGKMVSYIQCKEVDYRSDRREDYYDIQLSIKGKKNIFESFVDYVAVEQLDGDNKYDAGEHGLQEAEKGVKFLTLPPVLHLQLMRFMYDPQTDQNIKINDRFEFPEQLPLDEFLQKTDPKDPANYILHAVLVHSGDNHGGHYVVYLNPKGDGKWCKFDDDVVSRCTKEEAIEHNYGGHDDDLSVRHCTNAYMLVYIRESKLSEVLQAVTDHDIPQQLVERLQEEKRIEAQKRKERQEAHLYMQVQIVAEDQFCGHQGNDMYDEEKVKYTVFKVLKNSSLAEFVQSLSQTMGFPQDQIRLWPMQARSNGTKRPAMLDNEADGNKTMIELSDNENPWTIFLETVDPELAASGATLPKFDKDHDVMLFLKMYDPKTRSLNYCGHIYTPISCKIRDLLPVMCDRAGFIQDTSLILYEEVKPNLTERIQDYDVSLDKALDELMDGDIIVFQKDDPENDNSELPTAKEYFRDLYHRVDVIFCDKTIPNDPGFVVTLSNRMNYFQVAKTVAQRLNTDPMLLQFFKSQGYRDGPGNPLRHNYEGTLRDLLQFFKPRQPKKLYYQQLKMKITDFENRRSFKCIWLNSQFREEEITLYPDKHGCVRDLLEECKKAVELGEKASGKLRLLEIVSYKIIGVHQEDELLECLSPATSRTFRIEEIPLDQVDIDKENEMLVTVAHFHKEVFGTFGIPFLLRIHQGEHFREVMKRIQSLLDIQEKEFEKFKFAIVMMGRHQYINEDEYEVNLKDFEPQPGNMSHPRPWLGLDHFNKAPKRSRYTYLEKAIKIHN

As usually defined, the IC50 is the concentration at which inhibition is half-maximal. In turn, `CC(=O)Nc1cccc(-c2cnc(N)c(-c3ccc(O)cc3)c2)c1` had a half-maximal inhibitory concentration (IC50) in assay [1] of 15.1 µM. In general, EC50 refers to the concentration at which the effect is half-maximal. Regarding `Nc1nc(N)c(-c2ccc(O)cc2)cc1-c1ccc(O)cc1`, in assay [2], the EC50 is 36.5 µM. For the same compound, the IC50 in assay [1] was found to be 8.5 µM.

Turning to `Oc1ccc(-c2nc(C3CCNCC3)co2)cc1`, half-maximal inhibition in assay [1] (IC50) required 85.2 µM.

On to `CCc1c(-c2ccc(O)cc2)cnc(N)c1-c1cccc(C#N)c1`, for which the half-maximal effective concentration (EC50) in assay [2] stood at 37.5 µM. This compound also registered an IC50 in assay [1] of 5.2 µM. One may read the Kd as the free concentration of one partner at which half of the binding sites on the other are occupied at equilibrium, for simple one-to-one binding. Low values mean higher affinity, high ones lower affinity. In assay [3], `CN1CCC(c2noc(-c3ccc(O)cc3)n2)CC1` came in with a Kd of 12 to 27 µM. Besides, in assay [1], the IC50 worked out at 79.2 µM. Take `CCc1c(-c2ccc3cn[nH]c3c2)cnc(N)c1-c1ccc(O)cc1`: the IC50 in assay [1] amounted to 0.48 µM. Still for that read-out and setting: then `CCc1c(-c2ccc(O)cc2)cnc(N)c1-c1ccc(O)cc1`, with 2.5 µM. As for `CCc1c(-c2ccc3[nH]ncc3c2)cnc(N)c1-c1ccc(O)cc1`, in assay [2], the EC50 came to 0.3 µM. For the compound `CC(C)c1c(-c2ccc(O)cc2)cnc(N)c1-c1ccc(O)cc1`, the concentration for half-maximal inhibition (IC50) in assay [1] stood at 21.4 µM.

`Oc1ccc(-c2ncc(C3CCNCC3)o2)c(F)c1` yielded an IC50 in assay [1] of 18.4 µM. On to `CN1CCC(c2noc(-c3ccc(O)cc3)n2)C1` (stereo unspecified), for which half-maximal inhibition in assay [1] (IC50) was put at 131 µM. In assay [1], `CCCc1c(-c2ccc(O)cc2)cnc(N)c1-c1ccc(O)cc1` registered an IC50 of 13.6 µM. Same read-out and setting: in the case of `CCc1c(-c2ccc(O)cc2)cnc(N)c1-c1ccccc1` it was 22.4 µM.

Consider `N#Cc1c(-c2ccc(O)cc2)cnc(N)c1-c1ccc(O)cc1`, for which the IC50 in assay [1] was more than 200 µM. Still for that read-out and setting: in the case of `Oc1ccc(-c2nc(C3CCNC3)no2)cc1` (stereo unspecified) it was 132 µM; in that of `Fc1cccc(OCC2CCNCC2)c1`, more than 2000 µM. Still for that read-out and setting: in the case of `CCc1c(-c2ccc(O)cc2)cnc(N)c1-c1ccc2[nH]ncc2c1` it was 0.61 µM; in that of `Nc1ncc(-c2ccccc2Cl)cc1-c1ccc(O)cc1`, 33.2 µM. On to `CCc1c(-c2ccc(C(=O)NC)nc2)cnc(N)c1-c1ccc(O)cc1`, for which, in assay [2], the EC50 is 2.58 µM. For the same compound, in assay [1], the IC50 was 1.34 µM.

On to `CCc1c(-c2cccc(C#N)c2)cnc(N)c1-c1ccc(O)cc1`, for which half-maximal inhibition in assay [1] (IC50) was put at 2.5 µM.

In assay [3], `Oc1ccc(-c2nc(C3CCNCC3)no2)cc1` displayed a Kd of 12 to 27 µM. In assay [1], this compound gave an IC50 of 97.7 µM. Take `Oc1ccc(-c2ncc(C3CCNCC3)o2)cc1`: in assay [1], the midpoint of inhibition, the IC50, lay at 32.8 µM. On the same count and under the same terms, in the case of `Nc1ncc(-c2ccc(O)cc2)cc1-c1ccc(O)cc1` it was 11.1 µM; in that of `Cc1c(-c2ccc(O)cc2)cnc(N)c1-c1ccc(O)cc1`, 7.6 µM. Regarding `CCc1c(-c2ccccc2)cnc(N)c1-c1ccc(O)cc1`, 9.6 µM corresponded to half-maximal inhibition in assay [1] (IC50). In assay [1], `Oc1ccc(-c2cncc(-c3ccc(O)cc3)c2)cc1` registered an IC50 of more than 50 µM.
